Measurements published in article PMC8694140, “Synthesis and photobiological applications of naphthalimide–benzothiazole conjugates: cytotoxicity and topoisomerase IIα inhibition” (RSC Advances, 2021).

Experiments:
[1] = test system: A549 (lung) human cancer cell line; experiment: MTT cytotoxicity assay, A549; type: cell-based; conditions: Homo sapiens, A549, 48 h
Procedure: (§1) Human malignant cell lines, i.e., MCF7 (breast), HeLa (cervix), and A549 (lung), as well as non-cancerous human cell line Hek293 (kidney), were cultured using the Ham's media or DMEM having 10% FBS, […] streptomycin, 100 U ml^−1 penicillin, and 50 mM glutamine. For seeding of cells, 96 well plates were used, maintaining the density of […] cells per well with the help of DMEM as a media having 10% FBS cells. Then, seeded cells were incubated in an incubator having a 5% CO2 supply at 37 °C. Compounds were added to the wells at 1, 10, and 100 μM concentrations, and cells were incubated for 48 h at 37 °C and then added 10 μl of MTT to each well prepared from 5 mg ml^−1 stock solution using 1 × PBS buffer and were incubated for 4 h at 37 °C in the dark. DMSO (100 μl) was used to dissolve the formazan crystals. To determine the concentration of formazan, the crystal absorbance difference was recorded at 570 nm. The percentage of relative cell toxicity was calculated by using the following eqn (1):1 [drawing 1]

[2] = molecular target: T1, human serum albumin (HSA) (Homo sapiens, UniProt P02768); experiment: Energy transfer (FRET) between HSA and compounds; type: binding; conditions: compound acceptor; for E (efficiency of energy transfer) / R0 (critical distance, 50% efficiency of energy transfer): HSA donor
T1 sequence (P02768 25-609): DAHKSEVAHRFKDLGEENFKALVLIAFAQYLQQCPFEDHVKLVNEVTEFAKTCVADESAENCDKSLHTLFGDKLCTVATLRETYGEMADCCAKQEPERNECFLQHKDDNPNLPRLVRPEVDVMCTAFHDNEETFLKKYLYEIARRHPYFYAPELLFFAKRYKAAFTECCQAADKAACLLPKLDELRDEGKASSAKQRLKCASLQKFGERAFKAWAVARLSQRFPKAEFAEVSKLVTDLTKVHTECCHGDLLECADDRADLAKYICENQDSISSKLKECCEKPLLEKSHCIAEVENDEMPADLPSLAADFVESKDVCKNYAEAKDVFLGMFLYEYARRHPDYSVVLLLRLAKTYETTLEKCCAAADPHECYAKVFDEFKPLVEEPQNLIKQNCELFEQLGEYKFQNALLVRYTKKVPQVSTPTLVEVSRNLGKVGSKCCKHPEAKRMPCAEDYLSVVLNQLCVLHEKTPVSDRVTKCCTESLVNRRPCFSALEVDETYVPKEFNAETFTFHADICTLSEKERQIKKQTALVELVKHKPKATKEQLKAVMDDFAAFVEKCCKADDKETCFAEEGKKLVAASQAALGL
From the text: Eqn (8)–(10) are used to calculate the values of overlap integral of an emission spectrum of donor with the absorption spectrum of the acceptor (J), the critical distance (50% efficiency of energy transfer, R0), efficiency of energy transfer (E), and the distance among donor and acceptor (r). […] The calculated distance between donor and acceptor for compounds 12 and 13 was found less than 8 nm, and both compounds follow 0.5R0 < r < 1.5R0.
The energy transfer study was accomplished by recording the HSA emission spectrum at 280 nm excitation wavelength and the absorption spectra of compounds 12 and 13.
The following eqn (8)–(10) were used to determine the donor to acceptor energy transfer (E), the critical distance required for energy transfer by 50% (R0), overlap integral of the emission spectrum of donor with the absorption spectrum of the acceptor (J), and distance among the donor and the acceptor (r):[39,57]8 [drawing 6] In this equation, F0 and F denote the emission intensities of HSA in free form and the presence of compounds 12 and 13, respectively.9 R0^6 = 8.8 × 10^−25k^2η^−4ϕJwhere k^2, η, ϕ denote the orientation factor of dipoles, refracted index for used medium, and fluorescence quantum yield of the donor.10 [drawing 7] In this equation, F(λ) denotes the emission intensity for the free form of the donor at the wavelength λ, whereas ε(λ) denotes the molar absorption coefficient of acceptor at the wavelength λ.

[3] = molecular target: T1, human serum albumin (HSA); experiment: HSA fluorescence quenching (Stern–Volmer, modified Stern–Volmer, van't Hoff); type: binding; conditions: 308 K
[4] = molecular target: human type IIa topoisomerase (Homo sapiens, UniProt P11388); experiment: Relaxation assay of human topoisomerase IIa (supercoiled pHOT1 plasmid DNA, agarose gel); type: biochemical; conditions: compared with etoposide (Fig. S56)
human type IIa topoisomerase, sequence (P11388 whole entry): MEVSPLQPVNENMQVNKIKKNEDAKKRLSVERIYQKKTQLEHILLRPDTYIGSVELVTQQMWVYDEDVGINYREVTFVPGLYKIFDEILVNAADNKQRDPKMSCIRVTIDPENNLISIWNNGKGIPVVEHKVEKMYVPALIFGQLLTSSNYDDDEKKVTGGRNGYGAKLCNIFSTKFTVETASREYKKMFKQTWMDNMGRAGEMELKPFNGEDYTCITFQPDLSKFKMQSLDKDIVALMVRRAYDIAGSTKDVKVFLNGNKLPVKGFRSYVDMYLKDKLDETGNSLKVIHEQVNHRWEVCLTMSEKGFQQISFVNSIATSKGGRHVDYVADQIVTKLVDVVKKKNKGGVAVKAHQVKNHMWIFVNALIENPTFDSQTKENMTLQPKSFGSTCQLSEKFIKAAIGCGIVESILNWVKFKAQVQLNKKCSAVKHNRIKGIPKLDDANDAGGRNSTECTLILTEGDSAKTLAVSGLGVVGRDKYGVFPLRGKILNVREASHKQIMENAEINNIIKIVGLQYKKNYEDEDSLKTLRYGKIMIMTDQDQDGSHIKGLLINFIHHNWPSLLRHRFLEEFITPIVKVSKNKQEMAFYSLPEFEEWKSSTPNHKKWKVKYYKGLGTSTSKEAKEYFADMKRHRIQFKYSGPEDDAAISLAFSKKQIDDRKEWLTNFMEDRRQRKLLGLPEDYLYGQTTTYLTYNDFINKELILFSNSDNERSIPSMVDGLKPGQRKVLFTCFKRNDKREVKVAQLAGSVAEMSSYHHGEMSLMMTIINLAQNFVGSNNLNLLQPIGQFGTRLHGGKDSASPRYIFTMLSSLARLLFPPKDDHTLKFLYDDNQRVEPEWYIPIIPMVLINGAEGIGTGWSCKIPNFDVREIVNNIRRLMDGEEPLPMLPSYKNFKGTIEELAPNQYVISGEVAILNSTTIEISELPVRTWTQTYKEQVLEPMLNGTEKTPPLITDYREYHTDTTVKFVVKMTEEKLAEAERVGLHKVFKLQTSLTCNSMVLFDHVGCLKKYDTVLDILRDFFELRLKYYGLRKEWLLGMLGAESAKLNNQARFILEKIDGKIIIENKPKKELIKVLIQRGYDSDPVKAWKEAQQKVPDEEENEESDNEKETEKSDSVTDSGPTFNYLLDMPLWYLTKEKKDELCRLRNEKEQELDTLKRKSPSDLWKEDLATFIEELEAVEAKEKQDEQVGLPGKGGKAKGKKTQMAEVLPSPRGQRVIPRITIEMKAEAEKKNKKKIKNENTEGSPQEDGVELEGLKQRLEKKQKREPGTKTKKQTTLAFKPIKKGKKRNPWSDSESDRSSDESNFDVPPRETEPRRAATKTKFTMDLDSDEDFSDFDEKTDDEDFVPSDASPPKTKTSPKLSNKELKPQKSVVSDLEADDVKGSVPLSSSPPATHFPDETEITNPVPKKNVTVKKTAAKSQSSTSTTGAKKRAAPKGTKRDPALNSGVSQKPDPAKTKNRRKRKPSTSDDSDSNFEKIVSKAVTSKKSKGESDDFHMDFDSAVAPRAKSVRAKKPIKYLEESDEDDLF
Procedure: The concentrations 0.1, 0.5, 1, 1.5, 2, and 3 μM were taken for both compounds (Fig. 3).
The assay of human type IIa topoisomerase mediated relaxation of supercoiled plasmid DNA was performed using reaction buffer (20 μl) (5 mM dithiothreitol, 0.5 M Tris–HCl, pH 8.0, 20 mM ATP, 1.50 M NaCl, 300 μg ml^−1 BSA, and 100 mM MgCl2) having supercoiled pHOT1 plasmid DNA (500 ng) and human type IIa topoisomerase enzyme (4 units). The reaction mixtures were incubated for 30 min at 37 °C, followed by adding 10% sodium dodecyl sulfate (2 μl) to stop the reaction. Added 0.5 mg ml^−1 proteinase K (1 μl) to the reaction mixture and allowed to incubate for 15 min at 37 °C. Then, added loading buffer, i.e., 0.25% bromophenol blue and 50% glycerol (1 μl) to the reaction mixture and run on 1% agarose gel electrophoresis using TAE buffer (1.14 ml acetic acid, and 0.37 g EDTA pH 8.1, and 100 ml of 10× stock solution–4.8 g of Tris base). The gel containing DNA was stained with ethidium bromide, washed, and photographed using UV light.

[5] = molecular target: T1, human serum albumin (HSA); experiment: Synchronous fluorescence spectroscopy of HSA; type: binding; conditions: Δλ = 15 nm, tyrosine residue
From the text: Synchronous fluorescence spectroscopy (SFS) is commonly used to evaluate the effect of ligand binding on the microenvironment of protein and its amino acids. It is usually observed that a change in polarity of the chromophore of protein causes deviation in the excitation wavelength of a particular amino acid residue.[48,49] This deviation can provide information about the change in confirmation of HSA on the binding of ligand. The SFS of HSA was noted using a fixed difference in wavelengths (Δλ) of 15 nm and 60 nm of synchronized recording of excitation and emission monochromators, which are characteristics of tyrosine and tryptophan amino acid residues, respectively.[50,51] […] The addition of compounds 12 and 13 produced a slight blue shift of about 4 nm at Δλ = 15 nm, corresponding to a tyrosine residue.
The synchronous fluorescence experiment of HSA was performed at a fixed amount of HSA and increasing concentrations of compounds 12 and 13. The spectra were recorded by taking the difference between the wavelengths of excitation and emission (Δλ = λemi − λexc) at 15 nm and 60 nm.

[6] = test system: HeLa (cervix) human cancer cell line; experiment: MTT cytotoxicity assay, HeLa; type: cell-based; conditions: Homo sapiens, 48 h
Procedure: as §1

[7] = molecular target: T1, human serum albumin (HSA); experiment: UV-vis absorption titration of HSA (Benesi–Hildebrand); type: binding; conditions: HSA 10 μM; for enhancement in absorbance of HSA at 280 nm: compound up to 7 μM; for Kd: UV-vis, phosphate buffer pH 7.4, 298 K, read-out: binding constant compound–HSA (Benesi–Hildebrand) (converted)
Procedure: To check the interactions between HSA and compounds, UV-vis absorption spectra of HSA (10 μM) were recorded in the absence and incremental additions of compounds 12 and 13 (7 μM). Noteworthy, enhancement in absorbance of HSA at 280 nm (57% for compound 12 and 51% for compound 13) on increasing concentrations of compounds indicated perturbations in the microenvironment of protein's chromophores as a result of interaction between HSA and compounds along with the development of new band at 348 nm (Fig. 4). Increasing the concentration of compounds also produces an enhancement in absorbance value at 348 nm. The binding constants for the compound–HSA system were calculated by Benesi–Hildebrand eqn (2)[32] as 1.75 × 10^5 M^−1 for compound 12 and 1.88 × 10^5 M^−1 for compound 13 (Fig. S57 ^†). These strong binding affinities are favorable for the adequate transportation of these compounds to their target sites.
To record the absorption spectra of HSA, a fixed amount of HSA (10 μM) was titrated with the increasing concentrations of compounds 12 and 13 (7 μM) in the phosphate buffer of pH 7.4 at 298 K. The phosphate buffer was used as a blank solution for baseline corrections. The absorption spectra were recorded in the range of 200–800 nm. […] To calculate the Kb value, the ratio of intercept to the slope was used as A0/(A − A0) versus 1/[compound] plots.

SMILES | IC50 [1] [µM] | E (efficiency of energy transfer) [2] | R0 (critical distance, 50% efficiency of energy transfer) [2] [nm] | J (overlap integral of donor emission with acceptor absorption) [2] | r (distance among donor and acceptor) [2] [nm] | K SV (Stern–Volmer quenching constant) [3] | K q (bimolecular quenching rate constant) [3] | n (average number of binding sites) [3] | ΔG of HSA binding [3] [kJ/M] | inhibition of topoisomerase II relaxation ([4]; 1 μM) | inhibition of topoisomerase II relaxation ([4]; 5, 10 and 50 μM) | blue shift of synchronous fluorescence of HSA [5] | IC50 [6] [µM] | enhancement in absorbance of HSA at 280 nm [7] [%] | Kd [7] [µM] | melting point [°C]
C=CCn1cc(-c2nc3ccccc3s2)c2cc(-c3ccc4c5c(cccc35)C(=O)N(CCO)C4=O)ccc21 [Compound 12, 6-(1-Allyl-3-(benzo[d]thiazol-2-yl)-1H-indol-5-yl)-2-(2-hydroxyethyl)-1H-benzo[de]isoquinoline-1,3(2H)-dione] | 0.14 ± 0.01 | 0.92 | 0.592 | 1.04 × 10^−18 cm^3 L mol^−1 | 0.393 | 5.19 10^6 M^−1 | 5.19 10^14 M^−1 s^−1 | 1.17 | -8.87 | partially inhibitor | significant and active inhibitors | about 4 nm | 3.76 ± 0.2 | 57 | 5.71 | 292 to 295
C#CCN1C(=O)c2cccc3c(-c4ccc5c(c4)c(-c4nc6ccccc6s4)cn5CC=C)ccc(c23)C1=O [Compound 13, 6-(1-Allyl-3-(benzo[d]thiazol-2-yl)-1H-indol-5-yl)-2-(prop-2-yn-1-yl)-1H-benzo[de]isoquinoline-1,3(2H)-dione] | 0.31 ± 0.01 | 0.93 | 0.591 | 1.039 × 10^−18 cm^3 L mol^−1 | 0.377 | 2.38 10^6 M^−1 | 2.38 10^14 M^−1 s^−1 | 1.07 | -7.93 | partially inhibitor | significant and active inhibitors | about 4 nm | 3.64 ± 0.19 | 51 | 5.32 | 282 to 285
